Source: patent US20250326771A1, “PIPERAZINE DERIVATIVES USEFUL IN HIV THERAPY” (VIIV HEALTHCARE COMPANY, priority 2022, published 2025)

Tests used:
[1] = test system: Jurkat HIV-luciferase clones; assay: Jurkat latency reversal assay; assay type: cell-based; conditions: Homo sapiens, 48 h; Jurkat latency reversal assay potency; read-out: Jurkat pEC50 (converted)
Summary of the method: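 Compounds are titrated 3-fold over 14 points from 10 μM in duplicate at 0.5% DMSO. Clones C16, 115 and N6, grown with 500 nM EFV, are co-incubated for 48 h at 37° C. Virally driven luciferase is read by luminescence, and EC50 and maximal percent activation versus vehicle come from a four-parameter model.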

cIAP1-BIR3 = cIAP1-BIR3 (Homo sapiens (Human), UniProt Q13490); assay: BIR binding assay (FRET competition), cIAP1 BIR3; conditions: for cIAP1 BIR3 vs BIR2 separation window: fold separation (FS) for cIAP1
Sequence of cIAP1-BIR3 (Q13490 253-363): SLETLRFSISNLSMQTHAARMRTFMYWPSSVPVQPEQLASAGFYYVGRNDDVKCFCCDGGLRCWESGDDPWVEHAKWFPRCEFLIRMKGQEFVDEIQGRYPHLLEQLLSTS
Summary of the method: (§1)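 Compounds tested as 15-point, 3-fold series displacing 200 nM AlexaFluor647-labelled SMAC peptide from His-tagged BIR domain (cIAP1-BIR3 50 nM; cIAP1-BIR2 and cIAP2-BIR2 325 nM; XIAP-BIR3 100 nM), pH 7.4, 60 min. Eu-W1024 (2 nM) added 30 min; emission ratio fitted for IC50.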

cIAP1-BIR2 = cIAP1-BIR2 (Homo sapiens (Human), UniProt Q13490); assay: BIR binding assay (FRET competition), cIAP1 BIR2
Sequence of cIAP1-BIR2 (Q13490 173-257): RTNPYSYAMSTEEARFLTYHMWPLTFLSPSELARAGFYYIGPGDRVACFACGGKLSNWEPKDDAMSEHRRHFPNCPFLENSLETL
Summary of the method: as §1

cIAP2-BIR3 = cIAP2-BIR3 (Homo sapiens (Human), UniProt Q13489); assay: BIR binding assay (FRET competition), cIAP2 BIR3; conditions: for cIAP2 BIR3 vs BIR2 separation window: fold separation (FS) for cIAP2
Sequence of cIAP2-BIR3 (Q13489 238-349): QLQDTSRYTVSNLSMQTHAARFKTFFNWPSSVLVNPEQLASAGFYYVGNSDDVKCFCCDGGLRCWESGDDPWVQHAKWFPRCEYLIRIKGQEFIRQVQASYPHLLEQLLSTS

cIAP2-BIR2 = cIAP2-BIR2 (Homo sapiens (Human), UniProt Q13489); assay: BIR binding assay (FRET competition), cIAP2 BIR2
Sequence of cIAP2-BIR2 (Q13489 158-242): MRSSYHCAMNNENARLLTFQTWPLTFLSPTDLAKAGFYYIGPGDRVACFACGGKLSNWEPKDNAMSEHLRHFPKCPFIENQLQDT
Summary of the method: as §1

XIAP-BIR3 = XIAP-BIR3 (Homo sapiens (Human), UniProt P98170); assay: BIR binding assay (FRET competition), XIAP BIR3; conditions: for XIAP BIR3 vs BIR2 separation window: fold separation (FS) for XIAP
Sequence of XIAP-BIR3 (P98170 241-356): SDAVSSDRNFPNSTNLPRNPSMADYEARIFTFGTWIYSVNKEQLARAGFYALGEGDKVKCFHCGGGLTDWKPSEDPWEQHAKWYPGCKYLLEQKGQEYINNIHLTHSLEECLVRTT
Summary of the method: as §1

XIAP-BIR2 = XIAP-BIR2 (Homo sapiens (Human), UniProt P98170); assay: BIR binding assay (FRET competition), XIAP BIR2; conditions: FRET competition; read-out: XIAP BIR2 (pIC50) (converted)
Sequence of XIAP-BIR2 (P98170 124-240): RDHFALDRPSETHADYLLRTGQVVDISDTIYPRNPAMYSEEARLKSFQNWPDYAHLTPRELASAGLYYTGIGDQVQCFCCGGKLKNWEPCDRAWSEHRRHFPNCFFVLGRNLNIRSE
Description: The BIR domain binding assays are FRET based competition assays that utilize His-tagged versions of each of the BIR2 and BIR3 domains from cIAP1, cIAP2, and XIAP (each domain assayed separately) each at a custom optimal concentration and a probe, 200 nM SMAC/DIABLO peptide AVPIAQKSE labelled with AlexaFluor647 (part #crb 1110326h, Discovery Peptides). The assay is conducted in 50 mM HEPES, […], 1 mM CHAPS, 5% Glycerol, 1 mM DTT, in dI water with a final pH of 7.4 and final volume of 20 uL. Final protein domain concentrations are: 50 nM cIAP1-BIR3 (Part #APT-11-370 Reaction Biology), 100 nM XIAP-BIR3 (Part #APT-11-351 Reaction Biology), 200 nM XIAP-BIR2 (Part #APT-11-470 Reaction Biology), 325 nM cIAP2-BIR2 (Part #APT-11-489 Reaction Biology), 50 nM cIAP2-BIR3 (Part #APT-11-372 Reaction Biology), 325 nM cIAP1-BIR2 (Part #APT-11-487 Reaction Biology). Compounds were plated using a HP Tecan D300 printer in a final total volume of 202 nl and DMSO concentration normalized across the 15-point, 3-fold dilution series. Peptide and probe were prepared at 2× relative to the concentrations above in binding buffer, 10 uL added to the prepared compound plates, and incubated for 60 minutes. LANCE Eu-W1024 (part #AD0401 Perkin Elmer #, vendor) was prepared at 2× concentration in binding buffer for final concentration of 2 nM, 10 uL added to each well, and plates incubated for 30 minutes. Plates were read on an ENVISION multifunction plate reader with […] laser excitation to obtain the 615 nm/665 nm emission ratio as indicative of probe:protein proximity. Data was analyzed using GraphPad PRISM and curves fit using log(inhibitor) vs. response—Variable slope (four […] method to obtain IC50 and pIC50 values.

SMILES | EC50 [1] [nM] | IC50 (cIAP1-BIR3) [nM] | cIAP1 BIR3 vs BIR2 separation window (cIAP1-BIR3) | IC50 (cIAP1-BIR2) [nM] | IC50 (cIAP2-BIR3) [nM] | cIAP2 BIR3 vs BIR2 separation window (cIAP2-BIR3) | IC50 (cIAP2-BIR2) [nM] | IC50 (XIAP-BIR3) [nM] | XIAP BIR3 vs BIR2 separation window (XIAP-BIR3) | IC50 (XIAP-BIR2) [nM]
C[C@@H]1CN(CC(=O)N2CC(C)(C)c3[nH]c(=O)c(Cc4ccc(F)cc4)cc32)[C@@H](CN2CCO[C@H](C(=O)NCC3CCN(C(=O)[C@@H]4CN(C[C@H]5CN[C@H](C)CN5CC(=O)N5CC(C)(C)c6[nH]c(=O)c(Cc7ccc(F)cc7)cc65)CCO4)CC3)C2)CN1 [Compound 133, (S)-4-(((2R,5R)-1-(2-(6-(4-fluorobenzyl)-3,3-dimethyl-5-oxo-2,3,4,5-tetrahydro-1H-pyrrolo[3,2-b]pyridin-1-yl)-2-oxoethyl)-5-methylpiperazin-2-yl)methyl)-N-((1-((S)-4-(((2R,5R)-1-(2-(6-(4-fluorobenzyl)-3,3-dimethyl-5-oxo-2,3,4,5-tetrahydro-1H-pyrrolo[3,2-b]pyridin-1-yl)-2-oxoethyl)-5-methylpiperazin-2-yl)methyl)morpholine-2-carbonyl)piperidin-4-yl)methyl)morpholine-2-carboxamide] | 63.1 to 316 | 31.6 to 501 | ++ (1,000>FS>100) | 1000 to 3160 | 7.94 to 15.8 | +++ (10,000>FS>1,000) | 3160 to 10000 | 15.8 to 31.6 | ++++ (FS>10,000) | 10000 to 51300
C[C@@H]1CN(CC(=O)N2CC(C)(C)c3[nH]c(=O)c(Cc4ccc(F)cc4)cc32)[C@@H](CN2CCO[C@H](C(=O)NCCN3CCN(C(=O)[C@@H]4CN(C[C@H]5CN[C@H](C)CN5CC(=O)N5CC(C)(C)c6[nH]c(=O)c(Cc7ccc(F)cc7)cc65)CCO4)CC3)C2)CN1 [Compound 134, (S)-4-(((2R,5R)-1-(2-(6-(4-fluorobenzyl)-3,3-dimethyl-5-oxo-2,3,4,5-tetrahydro-1H-pyrrolo[3,2-b]pyridin-1-yl)-2-oxoethyl)-5-methylpiperazin-2-yl)methyl)-N-(2-(4-((S)-4-(((2R,5R)-1-(2-(6-(4-fluorobenzyl)-3,3-dimethyl-5-oxo-2,3,4,5-tetrahydro-1H-pyrrolo[3,2-b]pyridin-1-yl)-2-oxoethyl)-5-methylpiperazin-2-yl)methyl)morpholine-2-carbonyl)piperazin-1-yl)ethyl)morpholine-2-carboxamide] | 12.6 to 63.1 | 15.8 to 31.6 | ++ (1,000>FS>100) | 1000 to 3160 | 7.94 to 15.8 | +++ (10,000>FS>1,000) | 1000 to 3160 | 31.6 to 501 | +++ (10,000>FS>1,000) | 10000 to 51300
C[C@@H]1CN(CC(=O)N2CC(C)(C)c3[nH]c(=O)c(Cc4ccc(F)cc4)cc32)[C@@H](CN2CCO[C@H](C(=O)NCCCN(C)C(=O)[C@@H]3CN(C[C@H]4CN[C@H](C)CN4CC(=O)N4CC(C)(C)c5[nH]c(=O)c(Cc6ccc(F)cc6)cc54)CCO3)C2)CN1 [Compound 135, (S)-4-(((2R,5R)-1-(2-(6-(4-fluorobenzyl)-3,3-dimethyl-5-oxo-2,3,4,5-tetrahydro-1H-pyrrolo[3,2-b]pyridin-1-yl)-2-oxoethyl)-5-methylpiperazin-2-yl)methyl)-N-(3-((S)-4-(((2R,5R)-1-(2-(6-(4-fluorobenzyl)-3,3-dimethyl-5-oxo-2,3,4,5-tetrahydro-1H-pyrrolo[3,2-b]pyridin-1-yl)-2-oxoethyl)-5-methylpiperazin-2-yl)methyl)morpholine-2-carboxamido)propyl)-N-methylmorpholine-2-carboxamide] | 63.1 to 316 | 15.8 to 31.6 | +++ (10,000>FS>1,000) | 3160 to 10000 | 7.94 to 15.8 | +++ (10,000>FS>1,000) | 3160 to 10000 | 15.8 to 31.6 | ++++ (FS>10,000) | 10000 to 51300
C[C@@H]1CN(CC(=O)N2CC(C)(C)c3[nH]c(=O)c(Cc4ccc(F)cc4)cc32)[C@@H](CN2CCO[C@H](C(=O)NCCCCCNC(=O)[C@@H]3CN(C[C@H]4CN[C@H](C)CN4CC(=O)N4CC(C)(C)c5[nH]c(=O)c(Cc6ccc(F)cc6)cc54)CCO3)C2)CN1 [Compound 136, (2S,2′S)-N,N′-(pentane-1,5-diyl)bis(4-(((2R,5R)-1-(2-(6-(4-fluorobenzyl)-3,3-dimethyl-5-oxo-2,3,4,5-tetrahydro-1H-pyrrolo[3,2-b]pyridin-1-yl)-2-oxoethyl)-5-methylpiperazin-2-yl)methyl)morpholine-2-carboxamide)] | 63.1 to 316 | 7.94 to 15.8 | +++ (10,000>FS>1,000) | 1000 to 3160 | 7.94 to 15.8 | +++ (10,000>FS>1,000) | 1000 to 3160 | 15.8 to 31.6 | ++++ (FS>10,000) | 10000 to 51300
C[C@@H]1CN(CC(=O)N2CC(C)(C)c3[nH]c(=O)c(Cc4ccc(F)cc4)cc32)[C@@H](CN2CCO[C@H](C(=O)NCC(O)CNC(=O)[C@@H]3CN(C[C@H]4CN[C@H](C)CN4CC(=O)N4CC(C)(C)c5[nH]c(=O)c(Cc6ccc(F)cc6)cc54)CCO3)C2)CN1 [Compound 137, (2S,2′S)-N,N′-(2-hydroxypropane-1,3-diyl)bis(4-(((2R,5R)-1-(2-(6-(4-fluorobenzyl)-3,3-dimethyl-5-oxo-2,3,4,5-tetrahydro-1H-pyrrolo[3,2-b]pyridin-1-yl)-2-oxoethyl)-5-methylpiperazin-2-yl)methyl)morpholine-2-carboxamide)] | 63.1 to 316 | 7.94 to 15.8 | +++ (10,000>FS>1,000) | 1000 to 3160 | 7.94 to 15.8 | +++ (10,000>FS>1,000) | 1000 to 3160 | 15.8 to 31.6 | ++++ (FS>10,000) | 10000 to 51300
C[C@@H]1CN(CC(=O)N2CC(C)(C)c3[nH]c(=O)c(Cc4ccc(F)cc4)cc32)[C@@H](CN2CCO[C@H](C(=O)NCCOCCNC(=O)[C@@H]3CN(C[C@H]4CN[C@H](C)CN4CC(=O)N4CC(C)(C)c5[nH]c(=O)c(Cc6ccc(F)cc6)cc54)CCO3)C2)CN1 [Compound 138, (2S,2′S)-N,N′-(oxybis(ethane-2,1-diyl))bis(4-(((2R,5R)-1-(2-(6-(4-fluorobenzyl)-3,3-dimethyl-5-oxo-2,3,4,5-tetrahydro-1H-pyrrolo[3,2-b]pyridin-1-yl)-2-oxoethyl)-5-methylpiperazin-2-yl)methyl)morpholine-2-carboxamide)] | 63.1 to 316 | 1.38 to 7.94 | +++ (10,000>FS>1,000) | 1000 to 3160 | 1.38 to 7.94 | +++ (10,000>FS>1,000) | 1000 to 3160 | 7.94 to 15.8 | ++++ (FS>10,000) | 10000 to 51300
C[C@@H]1CN(CC(=O)N2CC(C)(C)c3[nH]c(=O)c(Cc4ccc(F)cc4)cc32)[C@@H](CN2CCO[C@H](C(=O)NCC(C)(C)CNC(=O)[C@@H]3CN(C[C@H]4CN[C@H](C)CN4CC(=O)N4CC(C)(C)c5[nH]c(=O)c(Cc6ccc(F)cc6)cc54)CCO3)C2)CN1 [Compound 139, (2S,2′S)-N,N′-(2,2-dimethylpropane-1,3-diyl)bis(4-(((2R,5R)-1-(2-(6-(4-fluorobenzyl)-3,3-dimethyl-5-oxo-2,3,4,5-tetrahydro-1H-pyrrolo[3,2-b]pyridin-1-yl)-2-oxoethyl)-5-methylpiperazin-2-yl)methyl)morpholine-2-carboxamide)] | 63.1 to 316 | 7.94 to 15.8 | +++ (10,000>FS>1,000) | 1000 to 3160 | 7.94 to 15.8 | +++ (10,000>FS>1,000) | 1000 to 3160 | 31.6 to 501 | +++ (10,000>FS>1,000) | 10000 to 51300
